Assay [1] relates to B16. In words: Antitumor activity against mouse B16 cells xenografted in mouse assessed as increase in life span at 50 mg/kg/day, ip after 9 days. The assay is classed as functional. The conditions noted are these: route intraperitoneal.
The subject of assay [2] is P388. In words: Antitumor activity against mouse P388 cells xenografted in mouse assessed as increase in life span at 25 mg/kg/day, ip after 9 days. It is filed as functional. Conditions: route intraperitoneal.
Assay [3] has as its system L1210. In words: Cytotoxicity against mouse L1210 cells. The assay is classed as functional. The conditions noted are these: for IC50 / pIC50: Mus musculus; for IC50: L1210, read-out: ID50; for pIC50: L1210, read-out: ID50 (the source's name).
Assay [4] relates to L1210. The experiment in a line: Antitumor activity against mouse L1210 cells xenografted in mouse assessed as increase in life span at 50 mg/kg/day, ip after 9 days. The conditions noted are these: route intraperitoneal. The assay is classed as functional.
For assay [5], the system named is L1210. The experiment in a line: Inhibition of DNA synthesis in mouse L1210 cells. The assay is classed as functional. Conditions: read-out: ID50 (the source's name).
For assay [6], the system named is L1210. In words: Inhibition of RNA synthesis in mouse L1210 cells. The assay is classed as functional. Conditions: read-out: ID50 (the source's name).
The subject of assay [7] is P388. In words: Antitumor activity against mouse P388 cells xenografted in mouse assessed as increase in life span at 3.1 mg/kg/day, ip after 9 days. It is filed as functional. The conditions noted are these: route intraperitoneal.
The subject of assay [8] is B16. The experiment in a line: Antitumor activity against mouse B16 cells xenografted in mouse assessed as increase in life span at 12 mg/kg/day, ip after 9 days. It is filed as functional. The conditions noted are these: route intraperitoneal.
Assay [9] has as its system P388. In words: Antitumor activity against mouse P388 cells xenografted in mouse assessed as increase in life span at 6.5 mg/kg/day, ip after 9 days. The assay is classed as functional. Conditions: route intraperitoneal.
Assay [10] concerns P388. In words: Antitumor activity against mouse P388 cells xenografted in mouse assessed as increase in life span at 4 mg/kg/day, ip after 9 days. The assay is classed as functional. Conditions: route intraperitoneal.
The test system of assay [11] is P388. The experiment in a line: Antitumor activity against mouse P388 cells xenografted in mouse assessed as increase in life span at 12.5 mg/kg/day, ip after 9 days. The conditions noted are these: route intraperitoneal. It is filed as functional.
In assay [12] the test system is B16. In words: Antitumor activity against mouse B16 cells xenografted in mouse assessed as increase in life span at 0.5 to 1 mg/kg/day, ip after 9 days. It is filed as functional. The conditions noted are these: route intraperitoneal.
The test system of assay [13] is P388. The experiment in a line: Antitumor activity against mouse P388 cells xenografted in mouse assessed as increase in life span at 1 mg/kg/day, ip after 9 days. The conditions noted are these: route intraperitoneal. It is filed as functional.
Assay [14] concerns L1210. In words: Antitumor activity against mouse L1210 cells xenografted in mouse assessed as increase in life span at 1 mg/kg/day, ip after 9 days. The assay is classed as functional. Conditions: route intraperitoneal.
Assay [15] deals with L1210. The experiment in a line: Inhibition of protein synthesis in mouse L1210 cells. The assay is classed as functional, cell-based.
Assay [16] deals with L1210. In words: Inhibition of RNA synthesis in mouse L1210 cells at 10 nmole/ml. It is filed as functional.
Assay [17] has as its system P388. The experiment in a line: Antitumor activity against mouse P388 cells xenografted in mouse assessed as increase in life span at 70 mg/kg/day, ip after 9 days. The assay is classed as functional. Conditions: route intraperitoneal.
In assay [18] the test system is P388. The experiment in a line: Antitumor activity against mouse P388 cells xenografted in mouse assessed as increase in life span at 10 mg/kg/day, ip after 9 days. The conditions noted are these: route intraperitoneal. It is filed as functional.

pIC50: −log10 of the molar value. Active and inactive are the calls of the source. The calls are words filed in the database; no cut-off is given here.

In the case of `COC(=O)[C@@H]1c2cc3c(c(O)c2[C@@H](OC)C[C@]1(C)O)C(=O)c1c(O)cc2c(c1C3=O)O[C@@H]1O[C@@]2(C)[C@H](O)[C@@H](N(C)C)[C@@H]1O`, the Activity is given as 84% in the assay on B16 [1], 60% in the assay on P388 [2] and 12% with L1210 [4]. Moreover, the IC50 in the assay with L1210 [3] was determined as 0.27 µg/mL. The pIC50 is 5.42 with L1210 [5] and 6.30 in the assay with L1210 [6].
As for `CCCO[C@H]1C[C@](C)(O)Cc2cc3c(c(O)c21)C(=O)c1c(O)cc2c(c1C3=O)O[C@@H]1O[C@@]2(C)[C@H](O)[C@@H](N(C)C)[C@@H]1O`, in the assay on L1210 [3], the IC50 stood at 0.33 µg/mL. In the assay on P388 [7], the Activity is on record as 50%.
Regarding `CCO[C@H]1C[C@@](C)(O)Cc2cc3c(c(O)c21)C(=O)c1c(O)cc2c(c1C3=O)O[C@@H]1O[C@@]2(C)[C@H](O)[C@@H](N(C)C)[C@@H]1O`, the figures for the Activity with B16 [8] and with P388 [9] were 25% and 63%, respectively. The IC50 in the assay with L1210 [3] is 0.16 µg/mL. Moreover, the pIC50 with L1210 [5] is 4.97; with L1210 [6], 5.28.
As for `CCCO[C@H]1C[C@](C)(O)[C@H](C(=O)OC)c2cc3c(c(O)c21)C(=O)c1c(O)cc2c(c1C3=O)O[C@@H]1O[C@@]2(C)[C@H](O)[C@@H](N(C)C)[C@@H]1O`, the IC50 with L1210 [3] amounted to 0.16 µg/mL.
Turning to `CC(C)O[C@H]1C[C@@](C)(O)Cc2cc3c(c(O)c21)C(=O)c1c(O)cc2c(c1C3=O)O[C@@H]1O[C@@]2(C)[C@H](O)[C@@H](N(C)C)[C@@H]1O`, in the assay on P388 [10], the Activity worked out at 20%.
For the compound `Cc1ccc2c(O)c3c(cc2c1)C(=O)c1c2c(cc(O)c1C3=O)[C@@]1(C)O[C@@H](O2)[C@@H](O)[C@H](N(C)C)[C@H]1O` [NOGARENE], in the assay with L1210 [3], the ID95 came to 0.37 µM and the pIC50 is 6.66. The Activity in the assay with P388 [11] is reported as 17%.
As for `COC(=O)[C@@H]1c2cc3c(c(O)c2[C@@H](O[C@@H]2O[C@@H](C)[C@H](OC)[C@@](C)(OC)[C@H]2OC)C[C@]1(C)O)C(=O)c1c(O)cc2c(c1C3=O)O[C@@H]1O[C@@]2(C)[C@H](O)[C@@H](N(C)C)[C@@H]1O` [NOGALAMYCIN], the Activity in the assay on B16 [12] is reported as 71%; in the assay with P388 [13], 49%; with L1210 [14] it was 30%. The ID95 in the assay on L1210 [3] was 0.18 µg/mL. Further, the IC50 in the assay with L1210 [3] came to 0.078 µg/mL. Also, the pIC50 in the assay with L1210 [5] was 5.48; in the assay with L1210 [6], 6.40. Besides, the outcome in the assay with L1210 [15] was inactive. For the same compound, in the assay with L1210 [16], the “inhibition (INH)” value amounted to 99.9%.
For `CCO[C@H]1C[C@](C)(O)Cc2cc3c(c(O)c21)C(=O)c1c(O)cc2c(c1C3=O)O[C@@H]1O[C@@]2(C)[C@H](O)[C@@H](N(C)C)[C@@H]1O`, in the assay on B16 [8], the Activity was found to be 34%. Further, in the assay on L1210 [3], the IC50 was determined as 0.43 µg/mL. Further, the pIC50 is 5.49 with L1210 [5] and 6.10 in the assay on L1210 [6].
As to `CCN(CC)[C@H]1C[C@](C)(O)[C@H](C(=O)OC)c2cc3c(c(O)c21)C(=O)c1c(O)cc2c(c1C3=O)O[C@@H]1O[C@@]2(C)[C@H](O)[C@@H](N(C)C)[C@@H]1O`, the Activity in the assay with P388 [2] was found to be 38%.
With `CCO[C@H]1C[C@](C)(O)[C@H](C(=O)OC)c2cc3c(c(O)c21)C(=O)c1c(O)cc2c(c1C3=O)O[C@@H]1O[C@@]2(C)[C@H](O)[C@@H](N(C)C)[C@@H]1O`, the IC50 with L1210 [3] was found to be 0.16 µg/mL.
For `COC(=O)c1c(C)ccc2c(O)c3c(cc12)C(=O)c1c2c(cc(O)c1C3=O)[C@@]1(C)O[C@@H](O2)[C@@H](O)[C@H](N(C)C)[C@H]1O` [NOGALARENE], the Activity in the assay with P388 [17] worked out at 50%. Further, in the assay with L1210 [3], the ID95 came out at 0.58 µM and the pIC50 is 6.62.
Regarding `COC(=O)[C@@H]1c2cc3c(c(O)c2[C@@H](OC(C)=O)C[C@]1(C)O)C(=O)c1c(O)cc2c(c1C3=O)O[C@@H]1O[C@@]2(C)[C@H](O)[C@@H](N(C)C)[C@@H]1O`, the Activity in the assay on P388 [18] amounted to 87%.
